This is an account of results in ChEMBL document CHEMBL1201862, “PubChem BioAssay data set” (2004).

Among the test systems are M14; SNB-75; SN12C; Hs-578T; SK-OV-3; U-251; TK-10; Malme-3M; HCT-15; UACC-257; A498; OVCAR-4; MDA-N; SF-539; NCI/ADR-RES; OVCAR-3; SF-268; HCT-116; HOP-92; HL-60.
Common to all, as to assay: DTP human tumour cell line panel, 48 h

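Where inhibition never reached the appropriate level, the endpoint shown equals the highest concentration tested. Otherwise, values were interpolated linearly from a five-concentration, 48-hour dose response in 96-well plates. Abbreviation: GI50, concentration required for 50% inhibition of growth.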 Activity calls are given as the source filed them. Rule as the data show it: active = GI50 up to about 1.1 µM and inactive = higher.

On to `O=C1Oc2ccccc2N/C1=C/C(=O)c1ccc(Cl)cc1`, for which the GI50 in the experiment with M14, in the experiment with SNB-75, with SN12C, with Hs-578T, with SK-OV-3 and with U-251 was > 100 µM (inactive) each time. In addition, the GI50 is > 100 µM (inactive) in the experiment with TK-10; > 100 µM (inactive) with Malme-3M; over 100 µM in the experiment with HCT-15; > 100 µM (inactive) in the experiment with UACC-257; > 100 µM (inactive) in the experiment with A498; > 100 µM (inactive) with OVCAR-4. The GI50 is 66.1 µM (inactive) with MDA-N; 46.9 µM (inactive) in the experiment on SF-539; 39 µM (inactive) in the experiment on NCI/ADR-RES; 37.9 µM (inactive) with OVCAR-3; > 100 µM (inactive) in the experiment with SF-268; 62.5 µM (inactive) with HCT-116.
`CN(CC(=O)O)c1ccc(/C=C/c2ccnc3ccccc23)cc1`: the GI50 with M14 was 22.2 µM (inactive); with SNB-75, 24.8 µM (inactive); in the experiment on SN12C, 25.5 µM (inactive); with Hs-578T it was 25.4 µM (inactive); in the experiment on SK-OV-3 it was 28.9 µM (inactive); in the experiment with HOP-92 it was 22.9 µM (inactive). Moreover, the GI50 in the experiment with U-251 is 22.8 µM (inactive); in the experiment with TK-10 it was 19.7 µM (inactive); with HCT-15, 31.9 µM; in the experiment on UACC-257 it was 25.4 µM (inactive); with A498, 17.1 µM (inactive); in the experiment on MDA-N, 12.5 µM (inactive). In addition, the GI50 was 27.9 µM (inactive) with SF-539; 29.2 µM (inactive) in the experiment with NCI/ADR-RES; 27.9 µM (inactive) in the experiment with OVCAR-3; 11.4 µM (inactive) with HL-60; 19.1 µM (inactive) with SF-268; 23.8 µM (inactive) in the experiment with HCT-116.
As for `COc1ccc(C2C3CCc4ccccc4C3=NN2S(=O)(=O)c2ccc(Cl)cc2)cc1` (stereo unspecified), the GI50 in the experiment on M14 was 18.3 µM (inactive); in the experiment with SN12C, 37 µM (inactive); in the experiment on Hs-578T it was 33 µM (inactive); in the experiment with SK-OV-3 it was 0.0995 µM (active); in the experiment on HOP-92, 20 µM (inactive); in the experiment with U-251 it was 17.6 µM (inactive). Moreover, the GI50 in the experiment with TK-10 is 32.4 µM (inactive); with Malme-3M, 59.3 µM (inactive); in the experiment on HCT-15, 1.8 µM; in the experiment with UACC-257, 17.3 µM (inactive); in the experiment with OVCAR-4, 30.3 µM (inactive); in the experiment on MDA-N, 2.81 µM (inactive). The GI50 with SF-539 is 18.3 µM (inactive); in the experiment on NCI/ADR-RES it was 5 µM (inactive); in the experiment on OVCAR-3, 16.6 µM (inactive); in the experiment on HL-60, 17.9 µM (inactive); in the experiment on SF-268, 18.4 µM (inactive); in the experiment on HCT-116 it was 18.3 µM (inactive).
`CC(=O)NC1c2ccccc2C(C)(C)C12CCC1(CC2)OCCO1` (stereo unspecified): the GI50 is > 100 µM (inactive) in the experiment with M14; > 100 µM (inactive) in the experiment on SNB-75; > 10 µM (inactive) in the experiment with SN12C; > 100 µM (inactive) in the experiment on Hs-578T; > 10 µM (inactive) with SK-OV-3; > 100 µM (inactive) in the experiment on U-251. For the same molecule, the GI50 is > 100 µM (inactive) in the experiment with TK-10; 98.6 µM (inactive) in the experiment with Malme-3M; over 100 µM in the experiment on HCT-15; > 100 µM (inactive) in the experiment on UACC-257; > 100 µM (inactive) with OVCAR-4; > 100 µM (inactive) in the experiment on MDA-N. Moreover, the GI50 with SF-539, in the experiment with NCI/ADR-RES, with HL-60, in the experiment with SF-268 and in the experiment on HCT-116 was > 100 µM (inactive) throughout.
As for `C[Si](C)(C)C#CCOC=C1CC1`, the GI50 in the experiment on M14, in the experiment with SNB-75, with SN12C, in the experiment with Hs-578T, with SK-OV-3 and in the experiment with U-251 was > 100 µM (inactive) in each case. Besides, the GI50 in the experiment on TK-10 was > 100 µM (inactive); in the experiment with Malme-3M, > 100 µM (inactive); with HCT-15 it was over 100 µM; in the experiment with UACC-257, > 100 µM (inactive); in the experiment on OVCAR-4, > 100 µM (inactive); with MDA-N, > 100 µM (inactive). The GI50 in the experiment with SF-539 was > 100 µM (inactive); with NCI/ADR-RES it was > 100 µM (inactive); in the experiment on HL-60, 35.2 µM (inactive); in the experiment on SF-268 it was > 100 µM (inactive); with HCT-116, > 100 µM (inactive).
In the case of `O=C1OC(=O)C2=C1C(c1cccs1)C=C(c1cccnc1)N2c1ccncc1` (stereo unspecified), the GI50 is 13.2 µM (inactive) in the experiment on M14; 15.2 µM (inactive) in the experiment with SNB-75; 17.1 µM (inactive) with SN12C; 18.7 µM (inactive) with Hs-578T; 24.9 µM (inactive) in the experiment on SK-OV-3; 12.8 µM (inactive) in the experiment with HOP-92. For the same molecule, the GI50 in the experiment with U-251 was 16.9 µM (inactive); in the experiment on TK-10, 17 µM (inactive); in the experiment with HCT-15, 14.2 µM; in the experiment on UACC-257, 12.3 µM (inactive); in the experiment with A498, 18.7 µM (inactive); in the experiment with OVCAR-4, 20 µM (inactive). Moreover, the GI50 in the experiment on MDA-N was 17.8 µM (inactive); with NCI/ADR-RES, 29.4 µM (inactive); in the experiment with OVCAR-3, 13.4 µM (inactive); in the experiment with HL-60 it was 11 µM (inactive); with SF-268, 16.6 µM (inactive); in the experiment with HCT-116, 14.3 µM (inactive).
On to `Cc1c2cnccc2c(C)c2c1[nH]c1ccc(O)cc12`, for which the GI50 in the experiment with M14 is 1.57 µM (inactive); in the experiment with SNB-75 it was 1.87 µM (inactive); with SN12C it was 1.12 µM (inactive); in the experiment on Hs-578T, > 10 µM (inactive); with SK-OV-3, 6.58 µM (inactive); in the experiment on U-251, 2.02 µM (inactive). For the same molecule, the GI50 with TK-10 is 3.91 µM (inactive); with Malme-3M, 1.35 µM (inactive); in the experiment on HCT-15, 0.971 µM; in the experiment on UACC-257, 2.73 µM (inactive); in the experiment with OVCAR-4, 2.33 µM (inactive); with MDA-N it was 2.79 µM (inactive). For the same molecule, the 50% growth inhibitory concentration (GI50) in the experiment with SF-539 is 1.07 µM (active); in the experiment with NCI/ADR-RES, 0.693 µM (active); in the experiment on OVCAR-3 it was 1.13 µM (inactive); in the experiment with HL-60, 1.05 µM (active); with SF-268, 1.01 µM (active); with HCT-116, 0.796 µM (active).
For `CCOC(=O)C(NC(=O)Nc1ccccc1F)(OC)C(F)(F)F` (stereo unspecified), the GI50 with M14, in the experiment on SNB-75, with SN12C, with Hs-578T, in the experiment with SK-OV-3 and with U-251 was > 100 µM (inactive) in each case. The GI50 in the experiment on TK-10 was > 100 µM (inactive); in the experiment on HCT-15 it was over 100 µM; in the experiment with UACC-257, > 100 µM (inactive); in the experiment on A498, > 100 µM (inactive); with MDA-N it was > 100 µM (inactive); in the experiment on SF-539 it was > 100 µM (inactive). Besides, the GI50 with NCI/ADR-RES, in the experiment on HL-60, in the experiment on SF-268 and in the experiment with HCT-116 was > 100 µM (inactive) in each case.
As to `O=NN1CCNC1Cc1ccccc1` (stereo unspecified), the GI50 in the experiment on M14 was 41.6 µM (inactive); in the experiment on SNB-75 it was 18.3 µM (inactive); in the experiment on SN12C it was 63 µM (inactive); in the experiment with Hs-578T, > 100 µM (inactive); in the experiment with SK-OV-3 it was 75.2 µM (inactive); with HOP-92 it was > 100 µM (inactive). Also, the GI50 is 33.3 µM (inactive) with U-251; > 100 µM (inactive) in the experiment on TK-10; > 100 µM (inactive) in the experiment on Malme-3M; over 100 µM in the experiment on HCT-15; > 100 µM (inactive) with UACC-257; > 100 µM (inactive) in the experiment with OVCAR-4. The GI50 in the experiment on MDA-N is > 100 µM (inactive); in the experiment on SF-539 it was 48.9 µM (inactive); in the experiment on NCI/ADR-RES, > 100 µM (inactive); in the experiment on OVCAR-3, > 100 µM (inactive); in the experiment on HL-60, 37.6 µM (inactive); in the experiment with SF-268, 43.4 µM (inactive). In addition, the GI50 in the experiment with HCT-116 was 71.6 µM (inactive).
`Nc1nc(SC/C=C/c2ccccc2)c2[nH]cnc2n1`: the GI50 in the experiment on M14 was 71.8 µM (inactive); with SNB-75, 28.6 µM (inactive); in the experiment on SN12C, > 100 µM (inactive); with Hs-578T, 16.7 µM (inactive); in the experiment with SK-OV-3 it was > 100 µM (inactive); with U-251, > 100 µM (inactive). In addition, the GI50 in the experiment on TK-10 was 22.4 µM (inactive); with Malme-3M it was > 100 µM (inactive); with HCT-15, 32.8 µM; in the experiment on UACC-257, > 100 µM (inactive); with A498, > 100 µM (inactive); in the experiment on OVCAR-4, > 100 µM (inactive). For the same molecule, the GI50 with MDA-N is > 100 µM (inactive); with SF-539 it was > 100 µM (inactive); with NCI/ADR-RES, 48.9 µM (inactive); in the experiment on OVCAR-3 it was 30.4 µM (inactive); in the experiment with HL-60, 54.7 µM (inactive); with SF-268, 74.8 µM (inactive). Also, the GI50 with HCT-116 is > 100 µM (inactive).
`NC(=O)c1c(NC=O)ncn1C1OCC(O)C(O)C1O` (stereo unspecified): the GI50 in the experiment on SNB-75, in the experiment on SN12C, in the experiment with Hs-578T, with SK-OV-3, in the experiment with HOP-92 and in the experiment on U-251 was > 100 µM (inactive) throughout. The GI50 is > 100 µM (inactive) with TK-10; > 100 µM (inactive) in the experiment with Malme-3M; over 100 µM with HCT-15; > 100 µM (inactive) with UACC-257; > 100 µM (inactive) with OVCAR-4; > 100 µM (inactive) with MDA-N. The GI50 in the experiment with SF-539, with NCI/ADR-RES, in the experiment on OVCAR-3, with HL-60, in the experiment with SF-268 and in the experiment with HCT-116 was > 100 µM (inactive) throughout.

One may read the GI50 as the concentration giving 50% growth inhibition.
